Results published in patent US20230355670A1, “Methods of activating cytotoxic leukocytes using PTP1B and PTPN2 inhibitors” (Monash University, priority 2019, published 2023).

Columns and labels:
[1] = system: HER-2-E0771 mammary tumour cells; assay: Tumour growth of HER-2-E0771 mammary tumours in HER-2 TG mice after adoptive transfer of control or Ptpn2-/- HER-2 CAR T cells, with MSI-1436 treatment; type: in vivo; conditions: MSI-1436 5 mg/kg intraperitoneally on days 1, 4 and 7 post adoptive transfer of total 5×10^6 control or Ptpn2-/- HER-2 CAR T cells; versus saline; female HER-2 TG mice
Description: HER-2-E0771 mammary tumour cells (2×10^5) were injected into the fourth inguinal mammary fat pads of female HER-2 TG mice. Seven days after tumour injection HER-2 TG mice received total body irradiation (4 Gy) followed by the adoptive transfer of total 5×10^6 HER-2 CAR T cells (=0.8×10^6 viable mCherry^+HER-2 CAR^+CD8^+CD44^hiCD62L^hi T cells) control (ctrl) or Ptpn2^−/− HER-2 CAR CD8 T cells (PTPN2 had been deleted by CRISPR-RNP). HER-2 mice were treated with MSI-1436 (5 mg/kg intraperitoneally) or saline on days 1, 4, and 7 post adoptive transfer and tumour growth was monitored. Significance in was determined using 2-way ANOVA Test; ****p<0.0001.

[2] = system: HER-2-E0771 mammary tumour cells; assay: Tumour growth of HER-2-E0771 mammary tumours in HER-2 TG mice after adoptive transfer of HER-2 CAR T cells, with MSI-1436 treatment; type: in vivo; conditions: MSI-1436 5 mg/kg intraperitoneally on days 1, 4, 7, 10, 13, 16 and 19 post adoptive transfer of total 20×10^6 HER-2 CAR T cells; versus saline; no IL-2; female HER-2 TG mice
Description: HER-2-E0771 mammary tumour cells (2×10^5) were injected into the fourth inguinal mammary fat pads of female HER-2 TG mice. Seven days after tumour injection HER-2 TG mice received total body irradiation (4 Gy) followed by the adoptive transfer of total 20×10^6 HER-2 CAR T cells (=6×10^6 viable mCherry^+HER2 CAR^+CD8^+CD44^hiCD62L^hi T cells) generated from Ptp1b^fl/fl versus Lck-Cre;Ptp1b^fl/fl splenocytes; mice were not administered IL-2. Mice were treated with PTP1B specific allosteric inhibitor MSI-1436 (5 mg/kg intraperitoneally) or saline on days 1, 4, 7, 10, 13, 16 and 19 post adoptive transfer and tumour growth was monitored. Representative results (means±SEM) from at least two independent experiments are shown. Significance was determined using 2-way ANOVA Test; *p<0.05 ****p<0.0001.
HER-2-E0771 mammary tumour cells (2×10^5) were injected into the fourth inguinal mammary fat pads of female HER-2 TG mice. […] Mice were treated with PTP1B specific allosteric inhibitor MSI-1436 (5 mg/kg intraperitoneally) or saline on days 1, 4, 7, 10, 13, 16 and 19 post adoptive transfer and tumour growth was monitored. […] Significance was determined using 2-way ANOVA Test; *p<0.05, ****p<0.0001.

CC(C)[C@@H](CC[C@@H](C)[C@H]1CC[C@H]2[C@@H]3[C@H](O)C[C@H]4C[C@@H](NCCCNCCCCNCCCN)CC[C@]4(C)[C@H]3CC[C@]12C)OS(=O)(=O)O [MSI-1436, Trodusquemine]
tumour growth (activity of CAR T cells in vivo) [1]: ‘supercharges’ CAR T cells in vivo
tumour growth (tumour-specific activity of HER2 CAR T cells in vivo) [2]: Enhances the Tumour-Specific Activity of HER2 CAR T Cells In Vivo
